Results taken from patent US20230035578A1, “CONTROLLED RELEASE OF COMPOUNDS” (TECHNISCHE UNIVERSITAET MUENCHEN, priority 2019, published 2023).
Structures can show the parent of a compound that is named as a salt.

Assay: Drug release from surface-bound mucin layer on PDMS (UV absorbance)
Assay type: physicochemical
Procedure: The coupling reaction was performed as described previously^9. Briefly, PDMS was treated with O2 plasma at 0.4 mbar pressure and an intensity of 30 W for 90 s. The plasma treatment replaces the […] groups on the polymer surface with hydroxyl groups, which enables a covalent attachment of silane molecules. The silane was used as a coupling agent to further allow for attaching porcine gastric mucin to the surface via carbodiimide coupling. Thus, we here used N-[3-Trimethoxysilyl)propyl]ethylenediamine triacetic acid trisodium salt (TMS-EDTA, abcr, Karlsruhe, Germany), which carries three carboxy groups on the other end. TMS-EDTA was diluted to a final concentration of 0.1% (w/v) in 10 mM Acetate buffer (pH=4.5). The activated PDMS samples were then incubated in the silane solution for 5 h at 60° C. Afterwards, the samples were washed in 80% ethanol (Carl Roth) for 1 h to remove unbound residues before they were placed in the oven at 60° C. for another 60 min to stabilize the bond between the PDMS and the silane.
In the next step, the carboxyl groups of the silane were activated. Therefore, the surface was covered with 100 mM MES buffer (pH=5.0) containing 5 mM 1-Ethyl-3-(3-dimethylaminopropyl)-carbodiimid-hydrochloride (EDC, Carl Roth) and 5 mM N-Hydroxysulfosuccinimide (sulfo-NHS, abcr) at RT for 30 min. Afterwards, the EDC-NHS solution was replaced by phosphate-buffered saline (pH=7.4, Lonza, Velviers, Belgium) containing 0.1% (w/v) of purified mucin and stored at 4° C. overnight. Amine groups from the mucin protein core then react with the EDC activated groups of the silane and form a stable covalent bond.
PDMS was allowed to crosslink at 60° C. overnight. Afterwards, this PDMS layer was coated with mucin as described in Section 1.2.
The mucin layer was loaded with the drug by incubating it in a drug-containing solution (TCL or VAC, 0.5 mg/mL) at 4° C. overnight. […] […] Before starting the release experiment, excessive glycerol, drug, and salt were removed and replaced by 2 mL of ultrapure water.
The […], and the release of TCL was tracked spectroscopically with a specord210 spectral photometer (Analytikjena, Jena, Germany) at 360 nm. The amount of released drug was determined by a standard curve which was generated by measuring serial dilutions of a drug solution (see FIG. 1). The release of VAN was also tracked spectroscopically, however, at 282 nm (for calibration curve, see FIG. 2).

In the case of `CN[C@H](CC(C)C)C(=O)N[C@H]1C(=O)N[C@@H](CC(N)=O)C(=O)N[C@H]2C(=O)N[C@H]3C(=O)N[C@H](C(=O)N[C@H](C(=O)O)c4cc(O)cc(O)c4-c4cc3ccc4O)[C@H](O)c3ccc(c(Cl)c3)Oc3cc2cc(c3O[C@@H]2O[C@H](CO)[C@@H](O)[C@H](O)[C@H]2O[C@H]2C[C@](C)(N)[C@H](O)[C@H](C)O2)Oc2ccc(cc2Cl)[C@H]1O` [Vancomycin, Vancomycin hydrochloride], the “CTCL, vancomycin release” value (Group 1: glycerol, Mg^2+, trigger 150 mM NaCl, time 0 h) is reported as 0.0014 ± 0.0010 mg/mL, the “CTCL, vancomycin release” value (Group 1: glycerol, Mg^2+, trigger 150 mM NaCl, time 0.5 h) is reported as 0.0051 ± 0.0029 mg/mL and the “CTCL, vancomycin release” value (Group 1: glycerol, Mg^2+, trigger 150 mM NaCl, time 1.0 h) is reported as 0.0083 ± 0.0042 mg/mL. For the same compound, the “CTCL, vancomycin release” value (Group 1: glycerol, Mg^2+, trigger 150 mM NaCl, time 2.0 h) was 0.0098 ± 0.0031 mg/mL, the “CTCL, vancomycin release” value (Group 1: glycerol, Mg^2+, trigger 150 mM NaCl, time 3.0 h) was 0.0097 ± 0.0029 mg/mL and the “CTCL, vancomycin release” value (Group 2: glycerol, Mg^2+, water, time 0 h) was 0.0008 ± 0.0008 mg/mL. For the same compound, the “CTCL, vancomycin release” value (Group 2: glycerol, Mg^2+, water, time 0.5 h) was 0.0008 ± 0.0011 mg/mL, the “CTCL, vancomycin release” value (Group 2: glycerol, Mg^2+, water, time 1.0 h) was 0.0022 ± 0.0007 mg/mL and the “CTCL, vancomycin release” value (Group 2: glycerol, Mg^2+, water, time 2.0 h) was 0.0007 ± 0.0009 mg/mL. The “CTCL, vancomycin release” value (Group 2: glycerol, Mg^2+, water, time 3.0 h) was 0.0012 ± 0.0006 mg/mL, the “CTCL, vancomycin release” value (Group 3: no condensation, Mg^2+, trigger 150 mM NaCl, time 0 h) was 0.0018 ± 0.0008 mg/mL and the “CTCL, vancomycin release” value (Group 3: no condensation, Mg^2+, trigger 150 mM NaCl, time 0.5 h) was 0.0024 ± 0.0010 mg/mL. For the same compound, the “CTCL, vancomycin release” value (Group 3: no condensation, Mg^2+, trigger 150 mM NaCl, time 1.0 h) was 0.0034 ± 0.0009 mg/mL, the “CTCL, vancomycin release” value (Group 3: no condensation, Mg^2+, trigger 150 mM NaCl, time 2.0 h) was 0.0034 ± 0.0003 mg/mL and the “CTCL, vancomycin release” value (Group 3: no condensation, Mg^2+, trigger 150 mM NaCl, time 3.0 h) was 0.0034 ± 0.0003 mg/mL. The “CTCL, vancomycin release” value (Group 4: no condensation, no stabilization, trigger 150 mM NaCl, time 0 h) was 0.0033 ± 0.0022 mg/mL, the “CTCL, vancomycin release” value (Group 4: no condensation, no stabilization, trigger 150 mM NaCl, time 0.5 h) was 0.0034 ± 0.0014 mg/mL and the “CTCL, vancomycin release” value (Group 4: no condensation, no stabilization, trigger 150 mM NaCl, time 1.0 h) was 0.0022 ± 0.0005 mg/mL. For the same compound, the “CTCL, vancomycin release” value (Group 4: no condensation, no stabilization, trigger 150 mM NaCl, time 2.0 h) was 0.0011 ± 0.0010 mg/mL, the “CTCL, vancomycin release” value (Group 4: no condensation, no stabilization, trigger 150 mM NaCl, time 3.0 h) was 0.0013 ± 0.0011 mg/mL and the “release after exposure to physiological trigger” value (Mg^2+, 150 mM NaCl) was “release was observed”. For the same compound, the “release where the trigger was absent” value (Mg^2+, no trigger) was “almost no release was observed”.
